The compounds below were run against T1, human PAH with the R408W mutation (A375 R408W cells) (Homo sapiens, UniProt P00439, R408W) (assay: Cell Based Phenylalanine Flux Assay). Conditions: A375 R408W cells; 24 hrs with compound, then 20 μM sepiapterin and 800 μM 13C9,15N-Phenylalanine for 4 hours; 13C-Tyrosine by LC-MS; average where tested multiple times.
T1 construct: expressed in transfected cells
T1 sequence (P00439 1-452 R408W): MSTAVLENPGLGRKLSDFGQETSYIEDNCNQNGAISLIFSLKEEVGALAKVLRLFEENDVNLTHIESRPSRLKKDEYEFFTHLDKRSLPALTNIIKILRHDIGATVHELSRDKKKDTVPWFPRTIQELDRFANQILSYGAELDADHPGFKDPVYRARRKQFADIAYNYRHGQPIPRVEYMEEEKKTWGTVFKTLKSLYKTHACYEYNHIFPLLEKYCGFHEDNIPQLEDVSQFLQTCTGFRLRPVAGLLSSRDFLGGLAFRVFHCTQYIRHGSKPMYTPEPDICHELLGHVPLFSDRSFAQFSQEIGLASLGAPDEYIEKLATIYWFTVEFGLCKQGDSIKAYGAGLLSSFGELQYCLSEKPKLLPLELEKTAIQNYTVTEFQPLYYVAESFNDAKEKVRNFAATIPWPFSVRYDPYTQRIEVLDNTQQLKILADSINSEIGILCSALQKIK
In short: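 AC50 is derived from LC-MS of 13C-tyrosine in the media after a 4 h pulse of 800 μM 13C9,15N-phenylalanine plus 20 μM sepiapterin. The A375 R408W PAH cells had received duplicate 10-point, 2-fold compound dilutions (0.5% DMSO) for 24 h beforehand.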

Structure (SMILES)	AC50 [nM]
O=C(c1cnn2cc(-c3ccccn3)ccc12)N1CCc2[nH]cnc2[C@H]1c1nc2cc(F)ccc2o1 [Example 81, (S)-(4-(5-fluorobenzo[d]oxazol-2-yl)-6,7-dihydro-1H-imidazo[4,5-c]pyridin-5(4H)-yl)(6-(pyridin-2-yl)pyrazolo[1,5-a]pyridin-3-yl)methanone]	500 to 1000
Cc1ccc2oc([C@@H]3c4nc[nH]c4CCN3C(=O)c3ocnc3C(F)(F)F)nc2c1 [Example 63, (S)-(4-(5-methylbenzo[d]oxazol-2-yl)-6,7-dihydro-1H-imidazo[4,5-c]pyridin-5(4H)-yl)(4-(trifluoromethyl)oxazol-5-yl)methanone]	≤ 500
Cc1ccc2oc([C@H]3c4nc[nH]c4CCN3C(=O)c3ocnc3C(F)(F)F)nc2c1 [Example 64, (R)-(4-(5-methylbenzo[d]oxazol-2-yl)-6,7-dihydro-1H-imidazo[4,5-c]pyridin-5(4H)-yl)(4-(trifluoromethyl)oxazol-5-yl)methanone]	≤ 500
O=C(c1nnc(-c2ccccn2)o1)N1CCc2[nH]cnc2[C@@H]1c1nc2cc(F)ccc2o1 [Example 40, (R)-(4-(5-fluorobenzo[d]oxazol-2-yl)-6,7-dihydro-1H-imidazo[4,5-c]pyridin-5(4H)-yl)(5-(pyridin-2-yl)-1,3,4-oxadiazol-2-yl)methanone]	1000 to 5000

The next lines start with the values.

AC50 [nM]	Structure (SMILES)
≤ 500	O=C(c1oc(C2(O)CCC2)nc1C(F)(F)F)N1CCc2[nH]cnc2[C@H]1c1nc2cc(F)ccc2o1 [Example 585, (S)-(4-(5-fluorobenzo[d]oxazol-2-yl)-6,7-dihydro-1H-imidazo[4,5-c]pyridin-5(4H)-yl)(2-(1-hydroxycyclobutyl)-4-(trifluoromethyl)oxazol-5-yl)methanone]
≤ 500	O=C(c1ocnc1C(F)F)N1CCc2[nH]cnc2[C@@H]1c1nc2cc(OC(F)(F)F)ccc2o1 [Example 353, (R)-(4-(difluoromethyl)oxazol-5-yl)(4-(5-(trifluoromethoxy)benzo[d]oxazol-2-yl)-6,7-dihydro-1H-imidazo[4,5-c]pyridin-5(4H)-yl)methanone]
≤ 500	COc1cc(F)cc2nc([C@@H]3c4nc[nH]c4CCN3C(=O)c3ocnc3C(F)F)oc12 [Example 718, (S)-(4-(difluoromethyl)oxazol-5-yl)(4-(5-fluoro-7-methoxybenzo[d]oxazol-2-yl)-6,7-dihydro-1H-imidazo[4,5-c]pyridin-5(4H)-yl)methanone]
500 to 1000	CC(C)(O)c1nc(Br)c(C(=O)N2CCc3[nH]cnc3[C@H]2c2nc3cc(F)ccc3o2)o1 [Example 124, (S)-(4-bromo-2-(2-hydroxypropan-2-yl)oxazol-5-yl)(4-(5-fluorobenzo[d]oxazol-2-yl)-6,7-dihydro-1H-imidazo[4,5-c]pyridin-5(4H)-yl)methanone]
1000 to 5000	CCn1cnnc1C(=O)N1CCc2[nH]cnc2[C@@H]1c1nc2cc(F)ccc2o1 [Example 886, (R)-(4-ethyl-4H-1,2,4-triazol-3-yl)(4-(5-fluorobenzo[d]oxazol-2-yl)-6,7-dihydro-1H-imidazo[4,5-c]pyridin-5(4H)-yl)methanone]
≥ 5000	O=C(c1cnn2cc(N3CCC(O)CC3)ccc12)N1CCc2[nH]cnc2[C@@H]1c1nc2c(F)ccc(F)c2o1 [Example 896, (R)-(4-(4,7-difluorobenzo[d]oxazol-2-yl)-6,7-dihydro-1H-imidazo[4,5-c]pyridin-5(4H)-yl)(6-(4-hydroxypiperidin-1-yl)pyrazolo[1,5-a]pyridin-3-yl)methanone]
500 to 1000	O=C(c1ocnc1C(F)F)N1CCc2[nH]cnc2[C@@H]1c1nc2cccc(F)c2o1 [Example 900, (R)-(4-(difluoromethyl)oxazol-5-yl)(4-deuterium-4-(7-fluorobenzo[d]oxazol-2-yl)-6,7-dihydro-1H-imidazo[4,5-c]pyridin-5(4H)-yl)methanone]
500 to 1000	O=C(c1nnc(-c2ncccc2F)o1)N1CCc2[nH]cnc2[C@@H]1c1nc2cccc(C(F)(F)F)c2o1 [Example 839, (R)-(5-(3-fluoropyridin-2-yl)-1,3,4-oxadiazol-2-yl)(4-(7-(trifluoromethyl)benzo[d]oxazol-2-yl)-6,7-dihydro-1H-imidazo[4,5-c]pyridin-5(4H)-yl)methanone]
≥ 5000	Cc1nc(-c2ccn(C)n2)oc1C(=O)N1CCc2[nH]cnc2[C@@H]1c1nc2cc(F)ccc2o1 [Example 826, (R)-(4-(5-fluorobenzo[d]oxazol-2-yl)-6,7-dihydro-1H-imidazo[4,5-c]pyridin-5(4H)-yl)(4-methyl-2-(1-methyl-1H-pyrazol-3-yl)oxazol-5-yl)methanone]
500 to 1000	COc1cccc2nc([C@@H]3c4nc[nH]c4CCN3C(=O)c3nc(C(F)(F)F)nn3C)oc12 [Example 697, (S)-(4-(7-methoxybenzo[d]oxazol-2-yl)-6,7-dihydro-1H-imidazo[4,5-c]pyridin-5(4H)-yl)(1-methyl-3-(trifluoromethyl)-1H-1,2,4-triazol-5-yl)methanone]
≤ 500	Cc1ccc2nc([C@@H]3c4nc[nH]c4CCN3C(=O)c3oc(C(C)(C)O)nc3C(F)F)oc2c1 [Example 315, (S)-(4-(difluoromethyl)-2-(2-hydroxypropan-2-yl)oxazol-5-yl)(4-(6-methylbenzo[d]oxazol-2-yl)-6,7-dihydro-1H-imidazo[4,5-c]pyridin-5(4H)-yl)methanone]
1000 to 5000	O=C(c1ocnc1C(F)(F)F)N1Cc2[nH]cnc2[C@H]1c1nc2ccccc2o1 [Example 944, (S)-(4-(benzo[d]oxazol-2-yl)-4,6-dihydropyrrolo[3,4-d]imidazol-5(1H)-yl)(4-(trifluoromethyl)oxazol-5-yl)methanone]
1000 to 5000	Cn1cc(-c2nnc(C(=O)N3CCc4[nH]cnc4[C@@H]3c3nc4ccccc4o3)o2)cn1 [Example 582, (R)-(4-(benzo[d]oxazol-2-yl)-6,7-dihydro-1H-imidazo[4,5-c]pyridin-5(4H)-yl)(5-(1-methyl-1H-pyrazol-4-yl)-1,3,4-oxadiazol-2-yl)methanone]
≥ 5000	CC(C)(O)c1nc(Br)c(C(=O)N2CCc3[nH]cnc3[C@@H]2c2nc3ccc(F)cc3o2)o1 [Example 250, (R)-(4-bromo-2-(2-hydroxypropan-2-yl)oxazol-5-yl)(4-(6-fluorobenzo[d]oxazol-2-yl)-6,7-dihydro-1H-imidazo[4,5-c]pyridin-5(4H)-yl)methanone]

Same assay, conditions: A375 cells expressing R408W PAH; 24 hrs with compound, then 20 μM sepiapterin and 800 μM 13C9,15N-Phenylalanine for 4 hours; 13C-Tyrosine by LC-MS; average where tested multiple times

AC50 [nM]	Structure (SMILES)
1000 to 5000	O=C(CCc1cnco1)N1CCc2[nH]cnc2C1c1nc2cccc(F)c2o1 (stereo not shown)
≥ 5000	Cc1cccc2nc(C3c4nc[nH]c4CCN3C(=O)c3ccnn3C(C)C)oc12 (stereo not shown)
1000 to 5000	CNc1ccc2c(C(=O)N3CCc4[nH]cnc4C3c3nc4cc(F)ccc4o3)cnn2c1 (stereo not shown)
≥ 5000	Cc1nc(C2(O)CC2)oc1C(=O)N1CCc2[nH]cnc2C1c1nc2cc(F)ccc2o1 (stereo not shown)
≥ 5000	CN1CCN(c2nnc(C(=O)N3CCc4[nH]cnc4C3c3nc4cc(F)ccc4o3)o2)CC1 (stereo not shown)
≥ 5000	COCc1ncc(C(=O)N2CCc3[nH]cnc3C2c2nc3cc(F)ccc3o2)o1 (stereo not shown)
≥ 5000	Cc1nc(N2CCC(F)CC2)oc1C(=O)N1CCc2[nH]cnc2C1c1nc2cc(F)ccc2o1 (stereo not shown)
1000 to 5000	Cc1ccc2nc(C3c4nc[nH]c4CCN3C(=O)c3nnc(-c4cn[nH]c4)o3)oc2c1 (stereo not shown)

Structure (SMILES)	AC50 [nM]
CC(C)(C)OC(=O)N1CCN(c2ccc3c(C(=O)N4CCc5[nH]cnc5C4c4nc5cc(F)ccc5o4)cnn3c2)CC1 (stereo not shown)	1000 to 5000
CNC(C)(C)c1nc(C)c(C(=O)N2CCc3[nH]cnc3C2c2nc3cc(F)ccc3o2)o1 (single isomer, unassigned) [4R enantiomer of (2-{5-[4-(5-fluoro-1,3-benzoxazol-2-yl)-1H,]	≥ 5000

Source: US20250171437A1 (Agios Pharmaceuticals,Inc., priority 2022, published 2025)
